Data as given in ChEMBL document CHEMBL5696443 (Clin Cancer Res, 2016).
Calls of active or inactive are those of the source. The rule behind the calls is not given here.

Key:
[1] = tested on: EML4-ALK (Homo sapiens), Q9UM73+Q9HC35 [L1198F]; settings: BaF3, dose 500.0 nmol/L, time 3-5 weeks
[2] = target: Tyrosine-protein kinase TXK (Homo sapiens) (UniProt P42681); test: Inhibition of human TXK at 1 uM using EAIYAAPFAKKK as substrate in presence of [gamma33P]-ATP by HotSpot assay relative to control
BaF3 = test: Antitumor activity against mouse BaF3 cells expressing EML4-ALK L1196M mutant implanted in mouse assessed as tumor regression at 50 mg/kg, po administered once daily and measured after 8 days relative to control; format: functional; settings: time 8 day
[3] = target: Serine/threonine-protein kinase 33 (Homo sapiens) (UniProt Q9BYT3); test: Inhibition of human STK33 at 1 uM using MBP as substrate in presence of [gamma33P]-ATP by HotSpot assay relative to control
[4] = target: Tyrosine-protein kinase FRK (Homo sapiens, UniProt P42685); test: Inhibition of human FRK using RLGRDKYKTLRQIRQ as substrate in presence of [gamma33P]-ATP by HotSpot assay
[5] = target: Tyrosine-protein kinase ABL2 (Homo sapiens) (UniProt P42684); test: Inhibition of human ABL2 at 1 uM using EAIYAAPFAKKK as substrate in presence of [gamma33P]-ATP by HotSpot assay relative to control
[6] = target: Serine/threonine-protein kinase Nek9 (Homo sapiens, UniProt Q8TD19); test: Inhibition of human NEK9 using MBP as substrate in presence of [gamma33P]-ATP by HotSpot assay
Mus musculus = test: In vivo inhibition of ALK signaling in SCID Beige mouse xenografted with ALK positive human KARPAS-299 cells assessed as reduction in phosphorylated ERK1/2 level at 10 to 50 mg/kg, po administered as single dose and measured at 6 to 24 hrs by immunoblot analysis; format: functional, organism-based; settings: dose 10-50 mg/kg, time 6-24 hrs
[7] = target: NT-3 growth factor receptor (Homo sapiens) (UniProt Q16288); test: Inhibition of human NTRK3 at 1 uM using poly (Glu, Tyr)4:1 as substrate in presence of [gamma33P]-ATP by HotSpot assay relative to control
Insulin receptor = Insulin receptor (Homo sapiens, UniProt P06213); test: Inhibition of human INSR using poly (Glu, Tyr)4:1 as substrate in presence of [gamma33P]-ATP by HotSpot assay
[8] = target: Protein kinase C iota type (Homo sapiens) (UniProt P41743); test: Inhibition of human PRKCI at 1 uM using ERMRPRKRQGSVRRRV as substrate in presence of [gamma33P]-ATP by HotSpot assay relative to control
[9] = target: Misshapen-like kinase 1 (Homo sapiens) (UniProt Q8N4C8); test: Inhibition of human MINK1 at 1 uM using MBP as substrate in presence of [gamma33P]-ATP by HotSpot assay relative to control
[10] = target: Insulin-like growth factor 1 receptor (Homo sapiens, UniProt P08069)
Description: Inhibition of IGF-1R phosphorylation in IGF-1 stimulated human HepG2 cells preincubated with compound for 30 mins followed by IGF-1 stimulation for 10 mins by Immunoblot analysis

[11] = tested on: Protein cereblon/ALK tyrosine kinase receptor/Echinoderm microtubule-associated protein-like 4 (Homo sapiens), Q9UM73+Q9HC35+Q96SW2 [UNDEFINED MUTATION]; settings: BaF3, time 72.0 hrs
[12] = target: Calcium/calmodulin-dependent protein kinase type 1 (Homo sapiens) (UniProt Q14012); test: Inhibition of human CAMK1a at 1 uM using KKALRRQETVDAL as substrate in presence of [gamma33P]-ATP by HotSpot assay relative to control
[13] = target: Mitogen-activated protein kinase kinase kinase kinase 2 (Homo sapiens) (UniProt Q12851); test: Inhibition of human GCK at 1 uM using MBP as substrate in presence of [gamma33P]-ATP by HotSpot assay relative to control
[14] = tested on: Platelet-derived growth factor receptor alpha (Homo sapiens), P16234 [D842V]; test: Inhibition of human PDGFRalpha D842V mutant at 1 uM using poly (Glu, Tyr)4:1 as substrate in presence of [gamma33P]-ATP by HotSpot assay relative to control
[15] = tested on: EML4-ALK (Homo sapiens), Q9UM73+Q9HC35 [G1269A]; settings: BaF3, dose 500.0 nmol/L, time 3-5 weeks
[16] = target: Serine/threonine-protein kinase STK11 (Homo sapiens) (UniProt Q15831); test: Inhibition of human STK11 at 1 uM using LSNLYHQGKFLQTFCGSPLYRRR as substrate in presence of [gamma33P]-ATP by HotSpot assay relative to control
[17] = tested on: EML4-ALK (Homo sapiens), Q9UM73+Q9HC35 [L1196M]; settings: BaF3, time 3-5 weeks
[18] = target: Wee1-like protein kinase (Homo sapiens) (UniProt P30291); test: Inhibition of human WEE1 at 1 uM using CDK1 (D146N)/cyclin B1 as substrate in presence of [gamma33P]-ATP by HotSpot assay relative to control
[19] = tested on: Serine/threonine-protein kinase A-Raf (Homo sapiens), P10398 [Y301D,Y302D]; test: Inhibition of human ARAF Y301D/Y302D double mutant at 1 uM using MEK1 as substrate in presence of [gamma33P]-ATP by HotSpot assay relative to control
[20] = target: Serine/threonine-protein kinase Chk2 (Homo sapiens, UniProt O96017); test: Inhibition of human CHEK2 using KKKVSRSGLYRSPSMPENLNRPR as substrate in presence of [gamma33P]-ATP by HotSpot assay
[21] = target: Ephrin type-A receptor 2 (Homo sapiens) (UniProt P29317); test: Inhibition of human EPHA2 at 1 uM using poly (Glu, Tyr)4:1 as substrate in presence of [gamma33P]-ATP by HotSpot assay relative to control
[22] = target: Serine/threonine-protein kinase PAK 4 (Homo sapiens) (UniProt O96013); test: Inhibition of human PAK4 at 1 uM using RRRLSFAEPG as substrate in presence of [gamma33P]-ATP by HotSpot assay relative to control
[23] = target: Casein kinase I isoform alpha (Homo sapiens) (UniProt P48729); test: Inhibition of human CSNK1A1 at 1 uM using KRRRAL[pS]VASLPGL as substrate in presence of [gamma33P]-ATP by HotSpot assay relative to control
[24] = target: Casein kinase I isoform delta (Homo sapiens) (UniProt P48730); test: Inhibition of human CK1delta at 1 uM using KRRRAL[pS]VASLPGL as substrate in presence of [gamma33P]-ATP by HotSpot assay relative to control
[25] = target: Lymphokine-activated killer T-cell-originated protein kinase (Homo sapiens) (UniProt Q96KB5); test: Inhibition of human PBK at 1 uM using MBP as substrate in presence of [gamma33P]-ATP by HotSpot assay relative to control
Chain of Lymphokine-activated killer T-cell-originated protein kinase (Homo sapiens) (Q96KB5 whole entry): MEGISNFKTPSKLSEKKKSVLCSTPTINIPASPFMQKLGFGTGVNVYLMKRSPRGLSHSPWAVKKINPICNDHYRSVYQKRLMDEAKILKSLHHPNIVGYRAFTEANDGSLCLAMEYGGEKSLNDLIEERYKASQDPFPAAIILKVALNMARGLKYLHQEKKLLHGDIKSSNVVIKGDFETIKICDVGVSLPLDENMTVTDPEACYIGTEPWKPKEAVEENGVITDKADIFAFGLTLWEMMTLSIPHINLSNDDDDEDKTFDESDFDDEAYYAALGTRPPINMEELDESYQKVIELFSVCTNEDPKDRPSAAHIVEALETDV

Chain of Serine/threonine-protein kinase Nek9 (Q8TD19 whole entry): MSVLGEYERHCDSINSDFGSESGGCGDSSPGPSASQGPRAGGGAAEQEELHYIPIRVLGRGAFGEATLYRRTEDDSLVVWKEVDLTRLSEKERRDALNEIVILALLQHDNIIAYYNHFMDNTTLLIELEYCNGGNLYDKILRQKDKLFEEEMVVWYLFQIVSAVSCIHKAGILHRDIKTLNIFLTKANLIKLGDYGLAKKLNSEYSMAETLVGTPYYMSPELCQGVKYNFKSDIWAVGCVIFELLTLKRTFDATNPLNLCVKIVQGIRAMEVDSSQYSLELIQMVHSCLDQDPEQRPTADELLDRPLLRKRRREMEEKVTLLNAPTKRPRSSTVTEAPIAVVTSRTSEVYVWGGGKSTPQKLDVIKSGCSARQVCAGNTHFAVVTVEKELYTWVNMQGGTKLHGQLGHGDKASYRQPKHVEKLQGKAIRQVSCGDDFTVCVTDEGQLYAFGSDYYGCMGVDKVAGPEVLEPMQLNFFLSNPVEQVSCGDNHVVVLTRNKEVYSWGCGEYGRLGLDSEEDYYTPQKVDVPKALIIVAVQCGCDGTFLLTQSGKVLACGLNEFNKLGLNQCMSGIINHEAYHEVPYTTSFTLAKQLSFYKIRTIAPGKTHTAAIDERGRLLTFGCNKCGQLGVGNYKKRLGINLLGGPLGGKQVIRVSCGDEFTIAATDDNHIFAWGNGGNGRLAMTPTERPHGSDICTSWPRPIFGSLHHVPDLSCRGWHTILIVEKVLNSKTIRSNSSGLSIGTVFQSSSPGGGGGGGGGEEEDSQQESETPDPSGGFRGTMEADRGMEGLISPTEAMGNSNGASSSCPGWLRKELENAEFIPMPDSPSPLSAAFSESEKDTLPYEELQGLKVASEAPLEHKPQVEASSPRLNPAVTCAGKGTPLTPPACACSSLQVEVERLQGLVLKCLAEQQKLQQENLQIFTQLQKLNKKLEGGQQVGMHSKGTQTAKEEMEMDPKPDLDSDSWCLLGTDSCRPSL
Chain of Insulin-like growth factor 1 receptor (P08069 31-736 limits assumed): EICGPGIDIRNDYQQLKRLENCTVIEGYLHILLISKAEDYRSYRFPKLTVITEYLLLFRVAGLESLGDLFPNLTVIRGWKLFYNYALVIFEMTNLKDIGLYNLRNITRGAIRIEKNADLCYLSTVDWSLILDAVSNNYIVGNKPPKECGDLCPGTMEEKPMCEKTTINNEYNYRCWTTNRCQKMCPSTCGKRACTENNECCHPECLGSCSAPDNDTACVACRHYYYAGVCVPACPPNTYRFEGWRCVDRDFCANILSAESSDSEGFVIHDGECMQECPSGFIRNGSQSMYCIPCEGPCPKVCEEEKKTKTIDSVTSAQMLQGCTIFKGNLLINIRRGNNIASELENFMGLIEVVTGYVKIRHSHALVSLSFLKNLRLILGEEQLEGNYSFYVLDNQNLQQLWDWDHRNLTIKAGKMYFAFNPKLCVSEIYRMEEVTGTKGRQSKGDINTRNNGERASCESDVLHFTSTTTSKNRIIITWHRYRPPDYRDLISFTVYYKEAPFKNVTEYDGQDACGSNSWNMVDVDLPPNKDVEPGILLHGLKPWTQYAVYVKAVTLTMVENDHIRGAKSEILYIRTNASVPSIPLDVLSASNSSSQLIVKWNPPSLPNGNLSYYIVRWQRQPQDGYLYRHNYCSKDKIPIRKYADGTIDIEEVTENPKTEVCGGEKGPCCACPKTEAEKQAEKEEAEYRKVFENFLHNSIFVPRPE
Chain of Insulin-like growth factor 1 receptor (P08069 741-1367 limits assumed): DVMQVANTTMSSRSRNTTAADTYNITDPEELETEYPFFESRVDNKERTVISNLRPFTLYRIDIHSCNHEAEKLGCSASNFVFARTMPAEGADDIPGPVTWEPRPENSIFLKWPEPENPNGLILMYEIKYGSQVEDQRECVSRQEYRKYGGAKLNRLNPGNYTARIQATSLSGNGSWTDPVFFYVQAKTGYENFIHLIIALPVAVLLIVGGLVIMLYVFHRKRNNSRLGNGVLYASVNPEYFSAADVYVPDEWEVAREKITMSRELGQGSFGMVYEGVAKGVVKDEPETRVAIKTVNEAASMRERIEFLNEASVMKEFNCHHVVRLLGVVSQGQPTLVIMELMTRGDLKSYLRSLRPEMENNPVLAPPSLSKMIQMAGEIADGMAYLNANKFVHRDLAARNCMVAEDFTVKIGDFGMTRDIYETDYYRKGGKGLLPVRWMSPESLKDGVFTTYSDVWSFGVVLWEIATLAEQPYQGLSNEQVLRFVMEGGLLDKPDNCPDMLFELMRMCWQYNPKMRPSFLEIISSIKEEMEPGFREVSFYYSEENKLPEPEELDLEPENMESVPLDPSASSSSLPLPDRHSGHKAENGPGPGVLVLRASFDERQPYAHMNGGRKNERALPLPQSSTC
Chain of Wee1-like protein kinase (Homo sapiens) (P30291 whole entry, looked up): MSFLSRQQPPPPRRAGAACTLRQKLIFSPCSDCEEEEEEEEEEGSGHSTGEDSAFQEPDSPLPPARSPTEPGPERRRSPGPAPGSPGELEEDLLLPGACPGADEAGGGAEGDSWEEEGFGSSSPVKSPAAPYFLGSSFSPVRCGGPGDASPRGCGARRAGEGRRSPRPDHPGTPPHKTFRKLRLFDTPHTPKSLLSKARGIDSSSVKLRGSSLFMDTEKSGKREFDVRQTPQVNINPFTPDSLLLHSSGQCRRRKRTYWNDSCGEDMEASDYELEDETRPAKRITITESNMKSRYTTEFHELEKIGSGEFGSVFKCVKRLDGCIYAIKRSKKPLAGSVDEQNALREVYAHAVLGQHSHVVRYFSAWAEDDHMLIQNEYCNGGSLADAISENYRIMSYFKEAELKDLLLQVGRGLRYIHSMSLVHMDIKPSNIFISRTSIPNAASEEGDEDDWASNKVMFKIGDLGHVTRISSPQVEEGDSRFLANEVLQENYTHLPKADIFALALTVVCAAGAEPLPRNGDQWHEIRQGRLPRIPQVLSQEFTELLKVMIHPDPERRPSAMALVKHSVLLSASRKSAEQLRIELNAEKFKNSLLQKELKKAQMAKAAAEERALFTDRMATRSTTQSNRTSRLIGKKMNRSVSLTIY
Chain of Serine/threonine-protein kinase A-Raf (Homo sapiens), P10398 [Y301D,Y302D] (P10398 whole entry Y301D/Y302D): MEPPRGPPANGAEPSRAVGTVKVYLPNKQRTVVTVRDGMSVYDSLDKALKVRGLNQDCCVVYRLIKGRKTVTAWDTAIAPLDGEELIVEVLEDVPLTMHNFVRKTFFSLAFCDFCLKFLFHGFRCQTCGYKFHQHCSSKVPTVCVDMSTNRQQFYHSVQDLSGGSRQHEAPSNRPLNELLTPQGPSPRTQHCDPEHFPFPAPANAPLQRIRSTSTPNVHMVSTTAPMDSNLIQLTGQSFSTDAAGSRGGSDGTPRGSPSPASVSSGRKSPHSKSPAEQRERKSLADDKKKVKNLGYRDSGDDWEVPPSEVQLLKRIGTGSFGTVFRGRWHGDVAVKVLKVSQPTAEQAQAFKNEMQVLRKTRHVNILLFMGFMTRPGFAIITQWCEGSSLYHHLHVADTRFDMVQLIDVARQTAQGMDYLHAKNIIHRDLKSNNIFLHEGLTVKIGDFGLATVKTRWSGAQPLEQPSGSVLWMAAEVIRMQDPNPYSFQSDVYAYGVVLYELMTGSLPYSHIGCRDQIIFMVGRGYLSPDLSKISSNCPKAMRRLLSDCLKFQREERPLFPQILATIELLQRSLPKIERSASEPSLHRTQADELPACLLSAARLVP
Chain of Tyrosine-protein kinase FRK (P42685 whole entry): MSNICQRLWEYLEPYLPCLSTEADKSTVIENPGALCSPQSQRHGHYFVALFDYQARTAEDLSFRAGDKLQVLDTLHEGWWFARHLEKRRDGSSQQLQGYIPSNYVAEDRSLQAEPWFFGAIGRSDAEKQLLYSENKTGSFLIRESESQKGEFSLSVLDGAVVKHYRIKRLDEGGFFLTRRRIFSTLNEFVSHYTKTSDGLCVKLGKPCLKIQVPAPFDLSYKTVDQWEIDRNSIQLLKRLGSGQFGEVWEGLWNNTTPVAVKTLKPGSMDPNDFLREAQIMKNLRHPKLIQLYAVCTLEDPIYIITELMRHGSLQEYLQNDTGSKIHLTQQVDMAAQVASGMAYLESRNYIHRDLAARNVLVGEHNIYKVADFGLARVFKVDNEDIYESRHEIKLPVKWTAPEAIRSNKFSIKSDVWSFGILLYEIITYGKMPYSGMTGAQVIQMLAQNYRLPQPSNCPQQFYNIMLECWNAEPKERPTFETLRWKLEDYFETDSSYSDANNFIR
Chain of Serine/threonine-protein kinase STK11 (Homo sapiens) (Q15831 whole entry): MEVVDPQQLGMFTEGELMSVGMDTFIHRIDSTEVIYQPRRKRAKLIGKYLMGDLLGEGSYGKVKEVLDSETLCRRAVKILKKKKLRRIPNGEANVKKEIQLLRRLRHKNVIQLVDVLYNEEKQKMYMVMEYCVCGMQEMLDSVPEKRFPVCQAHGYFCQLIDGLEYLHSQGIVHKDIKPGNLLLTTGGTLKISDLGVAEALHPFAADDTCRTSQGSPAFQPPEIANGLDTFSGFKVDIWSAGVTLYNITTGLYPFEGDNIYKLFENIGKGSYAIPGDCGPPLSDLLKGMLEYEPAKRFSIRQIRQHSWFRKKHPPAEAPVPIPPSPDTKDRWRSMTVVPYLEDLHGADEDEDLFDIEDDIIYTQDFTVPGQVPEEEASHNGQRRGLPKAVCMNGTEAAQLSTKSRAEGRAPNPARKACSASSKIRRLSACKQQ

Q: How did the inhibition [1] turn out when COc1cc(N2CCC(N3CCN(C)CC3)CC2)ccc1Nc1ncc(Cl)c(Nc2ccccc2P(C)(C)=O)n1 [BRIGATINIB] was run?
A: Active

Q: What about the inhibition [2] of the same compound?
A: < 90%

Q: What about the Activity (BaF3) of the same compound?
A: 67%

Q: And the inhibition [3]?
A: < 90%

Q: What about the IC50 [4] of the same compound?
A: 52 nM

Q: And the inhibition [5]?
A: < 90%

Q: And the IC50 [6]?
A: > 1000 nM

Q: What about the Activity (Mus musculus) of the same compound?
A: Active

Q: And the inhibition [7]?
A: < 90%

Q: What about the IC50 (Insulin receptor) of the same compound?
A: 160 nM

Q: And the inhibition [8]?
A: < 90%

Q: And the inhibition [9]?
A: < 90%

Q: What about the IC50 [10] of the same compound?
A: 148 nM

Q: And the IC90 [11]?
A: 38 nM

Q: What about the inhibition [12] of the same compound?
A: < 90%

Q: And the inhibition [13]?
A: < 90%

Q: What about the inhibition [14] of the same compound?
A: < 90%

Q: What about the inhibition [15] of the same compound?
A: Active

Q: And the inhibition [16]?
A: < 90%

Q: And the IC90 [17]?
A: 118 nM

Q: What about the inhibition [18] of the same compound?
A: < 90%

Q: And the inhibition [19]?
A: < 90%

Q: And the IC50 [20]?
A: 6.5 nM

Q: And the inhibition [21]?
A: < 90%

Q: What about the inhibition [22] of the same compound?
A: < 90%

Q: What about the inhibition [23] of the same compound?
A: < 90%

Q: What about the inhibition [24] of the same compound?
A: < 90%

Q: And the inhibition [25]?
A: < 90%
